Assay results published in ChEMBL document CHEMBL5291721, “A preclinical secondary pharmacology resource illuminates target-adverse drug reaction associations of marketed drugs” (Nat Commun, 2023).

Legend:
[1] = biological target: T1, Alpha-1A adrenergic receptor (Homo sapiens, UniProt P35348); format: functional, cell-based
T1 sequence (P35348 whole entry): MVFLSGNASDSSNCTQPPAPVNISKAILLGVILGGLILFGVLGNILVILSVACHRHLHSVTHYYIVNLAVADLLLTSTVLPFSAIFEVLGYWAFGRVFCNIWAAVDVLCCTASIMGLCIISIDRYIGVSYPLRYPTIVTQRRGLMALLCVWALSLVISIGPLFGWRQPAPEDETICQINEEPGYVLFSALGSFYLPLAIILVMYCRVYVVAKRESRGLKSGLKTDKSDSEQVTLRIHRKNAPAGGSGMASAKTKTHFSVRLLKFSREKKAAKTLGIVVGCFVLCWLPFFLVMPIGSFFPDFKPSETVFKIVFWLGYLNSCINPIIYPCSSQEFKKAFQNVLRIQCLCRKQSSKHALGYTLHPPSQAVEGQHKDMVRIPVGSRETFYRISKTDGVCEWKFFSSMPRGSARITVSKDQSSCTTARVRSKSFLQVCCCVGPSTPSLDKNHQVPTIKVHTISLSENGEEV

D(3) dopamine receptor = D(3) dopamine receptor (Homo sapiens, UniProt P35462)
Chain of D(3) dopamine receptor (P35462 whole entry): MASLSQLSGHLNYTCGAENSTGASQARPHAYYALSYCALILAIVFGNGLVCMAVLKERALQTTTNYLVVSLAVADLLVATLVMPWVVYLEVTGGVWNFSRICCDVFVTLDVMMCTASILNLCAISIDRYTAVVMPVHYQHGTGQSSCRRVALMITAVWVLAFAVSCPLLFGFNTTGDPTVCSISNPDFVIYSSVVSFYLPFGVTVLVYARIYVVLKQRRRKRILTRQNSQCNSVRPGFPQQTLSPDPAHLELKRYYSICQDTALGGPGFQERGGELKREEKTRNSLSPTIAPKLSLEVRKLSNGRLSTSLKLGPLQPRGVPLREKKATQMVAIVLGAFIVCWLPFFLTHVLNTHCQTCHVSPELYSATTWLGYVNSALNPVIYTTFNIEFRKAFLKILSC

Estrogen receptor = biological target: T2, Estrogen receptor (Homo sapiens, UniProt P03372)
T2 sequence (P03372 whole entry): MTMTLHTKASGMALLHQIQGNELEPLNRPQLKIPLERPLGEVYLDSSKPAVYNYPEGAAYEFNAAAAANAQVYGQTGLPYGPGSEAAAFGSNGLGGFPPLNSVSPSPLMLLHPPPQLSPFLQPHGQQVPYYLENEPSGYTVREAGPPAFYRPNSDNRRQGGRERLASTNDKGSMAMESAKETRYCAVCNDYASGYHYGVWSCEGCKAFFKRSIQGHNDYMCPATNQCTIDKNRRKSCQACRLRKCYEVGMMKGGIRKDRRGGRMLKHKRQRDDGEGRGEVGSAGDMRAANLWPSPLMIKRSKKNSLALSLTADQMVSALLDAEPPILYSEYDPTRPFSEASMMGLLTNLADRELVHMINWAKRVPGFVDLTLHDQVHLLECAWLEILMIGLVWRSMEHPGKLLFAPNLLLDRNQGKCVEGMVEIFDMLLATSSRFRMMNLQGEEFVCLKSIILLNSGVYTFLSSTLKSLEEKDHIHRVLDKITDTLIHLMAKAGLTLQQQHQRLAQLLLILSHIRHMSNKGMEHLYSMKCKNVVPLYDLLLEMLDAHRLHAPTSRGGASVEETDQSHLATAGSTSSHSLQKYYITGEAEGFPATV
Further: assay procedure not described here.

Row | Compound | AC50 [1] [µM] | AC50 (D(3) dopamine receptor) [µM] | AC50 (Estrogen receptor) [µM]
1 | CC1(C)S[C@@H]2[C@H](/N=C/N3CCCCCC3)C(=O)N2[C@H]1C(=O)O [AMDINOCILLIN] | > 30 | > 30 | > 30
2 | CC(=O)[C@]1(N)Cc2c(O)c3c(c(O)c2[C@@H](O[C@H]2C[C@H](O)[C@H](O)CO2)C1)C(=O)c1ccccc1C3=O [AMRUBICIN] | > 3 | > 30 | > 30
3 | NC(=O)[C@@H]1CC[C@@H]2CN1C(=O)N2OS(=O)(=O)O [AVIBACTAM] | > 30 | > 30 | > 30
4 | CC(=O)OC[C@H]1O[C@@H](n2ncc(=O)[nH]c2=O)[C@H](OC(C)=O)[C@@H]1OC(C)=O [AZARIBINE] | > 30 | > 30 | > 30
5 | CC(C)(C)NC(=O)N[C@H](C(=O)N1C[C@H]2[C@@H]([C@H]1C(=O)NC(CC1CCC1)C(=O)C(N)=O)C2(C)C)C(C)(C)C (some centres undefined) [BOCEPREVIR] | > 30 | > 30 | > 30
6 | C=C1CC[C@H](O)C/C1=C/C=C1\CCC[C@]2(C)[C@@H]([C@H](C)CCCC(C)C)CC[C@@H]12 [CHOLECALCIFEROL] | > 30 | 15.6 | > 30
7 | Cc1ncc2c(c1O)COC2c1ccc(Cl)cc1 (centres undefined) [CICLETANINE] | > 30 | > 30 | > 30
8 | N#Cc1ccc(Oc2ccc3c(c2)COB3O)cc1 [CRISABOROLE] | 4.32 | > 30 | > 30
9 | CC(=O)O[C@H]1Cc2ccccc2N(C(N)=O)c2ccccc21 [ESLICARBAZEPINE ACETATE] | > 30 | > 30 | > 30
10 | Cc1ccc(S(=O)(=O)NC(=O)NC2CCCCC2)cc1 [GLYCYCLAMIDE] | > 30 | > 30 | > 30
11 | CN1CCCN(C(c2ccccc2)c2ccc(Cl)cc2)CC1 (centres undefined) [HOMOCHLORCYCLIZINE] | 2.89 | 0.0721 | > 30
12 | CC(COc1ccccc1)NC(C)C(O)c1ccc(O)cc1 (centres undefined) [ISOXSUPRINE] | 1.04 | 0.037 | > 30
13 | O=C(CCC/C=C\C[C@@H]1[C@@H](CC[C@@H](O)CCc2ccccc2)[C@H](O)C[C@@H]1O)OCCCCO[N+](=O)[O-] [LATANOPROSTENE BUNOD] | > 10 | > 30 | > 30
14 | Cc1oc(=O)oc1COC(=O)[C@@H]1N2C(=O)[C@@H](NC(=O)[C@H](N)c3ccccc3)[C@H]2SC1(C)C [LENAMPICILLIN] | 24.5 | > 30 | > 30
15 | CC1(CCN2CCCCC2)C(=O)CCc2ccccc21 (centres undefined) [NEPINALONE] | > 30 | > 30 | > 30
16 | COC(=O)C[C@](O)(CCCC(C)(C)O)C(=O)O[C@@H]1C(OC)=C[C@]23CCCN2CCc2cc4c(cc2[C@H]13)OCO4 [OMACETAXINE MEPESUCCINATE] | > 30 | > 30 | > 30
17 | CC[N+](C)(CC)CCOC(=O)C(O)(c1ccccc1)C1CCCCC1 (centres undefined) [OXYPHENONIUM] | > 30 | > 30 | > 30
18 | C[C@@H]1C[C@H]2[C@@H]3C[C@H](F)C4=CC(=O)C=C[C@]4(C)[C@H]3[C@@H](O)C[C@]2(C)[C@@]1(O)C(=O)CO [PARAMETHASONE] | > 30 | > 30 | > 30
19 | CCC[C@H](N[C@@H](C)C(=O)N1[C@H](C(=O)O)C[C@@H]2CCCC[C@@H]21)C(=O)OCC [PERINDOPRIL] | > 30 | > 30 | > 30
20 | NNCCc1ccccc1 [PHENELZINE] | > 1 | > 30 | > 30
21 | N[C@@H](Cc1ccccc1)C(=O)O [PHENYLALANINE] | > 30 | > 30 | > 30
22 | CCCn1cnc2c1c(=O)n(CCCCC(C)=O)c(=O)n2C [PROPENTOFYLLINE] | > 30 | > 30 | 28.9
23 | COc1cc(C)c2c(Oc3cccc(C(F)(F)F)c3)c(OC)cc(NC(C)CCCN)c2n1 (centres undefined) [TAFENOQUINE] | > 3 | 2.57 | 18.4
